# Reference: patent EP4667463A1, “DOMIDE MOLECULAR GLUE DERIVATIVE AND USE THEREOF” (CSPC Megalith Biopharmaceutical Co., Ltd., priority 2023, dated 2024)
# pIC50: −log10 of the molar value. Where two headings read alike, the source gives them in different places.
# What was measured:
# in vitro [1] = conditions: mouse, liver microsomes
# Description: (§3) The final concentration of the substrate in the incubation system was 1 µM, and the incubation time was 60 min. Sampling was performed at 0 min, 5 min, 15 min, 30 min, and 60 min. The reaction was stopped with glacial acetonitrile containing an internal standard (testosterone-d3 at a concentration of 10 ng/mL). Verapamil was used as a positive control. […] The natural logarithm of the remaining percentage was subjected to linear fitting with time to determine the elimination rate constant (k).
# [2] = Metabolic stability in liver microsomes; conditions: Human liver microsomes, after 60 min of incubation
# Description: as §3
# SNU-5 = test: Activity in cell strains with high expression of efflux pump proteins, cell viability assay; type: cell-based; conditions: Homo sapiens, SNU-5 cells, 96 h
# Description: (§1) Three types of cells used for evaluating the activity of the compounds of the present disclosure against a cell strain with high expression of efflux pump proteins were all purchased from Nanjing Cobioer Biosciences Co., Ltd., and all the cells were derived from ATCC (American Type Culture Collection). Various tumor cells were cultured until the cell confluency reached 80%-90%, with cell viability above 90% as determined by trypan blue exclusion. Then, the cells were plated. Specifically, after cell density optimization, 75 µL of each of three cell suspensions of SNU-5, HCT-15, and AsPc-1 cells (3000 cells/well) was inoculated into a BeyoGold™ ultra-low attachment black clear-bottom 96-well plate (Cat. No.: FULA965-24pcs), and the plate was incubated overnight in a cell incubator at 37 °C with carbon dioxide. The next day, after the cells adhered to the wall, 75 µL of the compounds diluted with the corresponding culture media were added. Specifically, the compounds were serially diluted at a 5-fold gradient starting from the highest concentration of 1 µM, with a final DMSO concentration of 1‰, and the test compounds were then added to the cell culture plate. The plate was incubated in an incubator at 37 °C with 5% carbon dioxide for 96 h. Before measurement, the CellTiter-Lumi™ luminescent cell viability assay reagent was equilibrated to room temperature in the dark. Then, 50 µL of the CellTiter-Lumi™ (Cat. No.: C0065XL) cell viability assay reagent was added to each well of the 96-well plate. The plate was shaken in the dark on a shaker at 300 rpm for 10 min to ensure complete cell lysis. After the reaction was completed, the chemiluminescence intensity was measured on a multi-mode microplate reader. The cell viability inhibition rate was determined according to the chemiluminescence intensity. Then, a cell viability curve was generated by Graphpad Prism 8.0, and the IC50 values were calculated. Table 3. Activity of the compounds of the present disclosure in cell strains with high expression of efflux pump proteins (IC50 value)
# AsPc-1 = test: as above; type: cell-based; conditions: Homo sapiens, ASPC1, AsPc-1 cells, 96 h
# Description: as §1
# HCT-15 = test: as above; type: cell-based; conditions: Homo sapiens, HCT-15 cells, 96 h
# Description: as §1
# in vitro [3] = conditions: human, liver microsomes
# Description: as §3
# in vitro [4] = conditions: monkey, liver microsomes
# Description: as §3
# in vitro [5] = conditions: rat, liver microsomes
# NCI-H929 = test: In vitro anti-tumor activity of molecular glue compounds, CellTiter-Lumi cell viability assay; type: cell-based; conditions: Homo sapiens; NCI-H929 cells, 96 h incubation; read-out: Cell inhibitory activity (IC50 values) NCI-H929
# Description: (§2) Different tumor cells were all commercially available and used for evaluating the anti-tumor inhibitory activity of the compounds of the present disclosure. Various tumor cells were cultured until the cell confluency reached 80%-90%, with cell viability above 90% as determined by trypan blue exclusion. Then, the cells were plated. Specifically, after cell density optimization, 100 µL of each of the cell suspensions of HL-60 and SK-BR-3 cells (cell density: 3000 cells/well), Romas cells (cell density: 6000 cells/well), NCI-H929 cells (cell density: 4000 cells/well), and NCI-H82 cells (cell density: 5000 cells/well) was plated in a BeyoGold™ ultra-low attachment black clear-bottom 96-well plate (Cat. No.: FULA965-24pcs), and the plate was incubated overnight. The next day, after the adherent cells were adhered to the wall and suspension cells requiring aggregation were aggregated, 50 µL of culture medium was aspirated from each well of the 96-well plate. Then, the compounds diluted with the corresponding culture media were added. Specifically, the compounds were serially diluted at a 5-fold gradient starting from the highest concentration of 1 µM, with a final DMSO concentration of 1%o, and the test compounds were then added to the cell culture plate. The plate was incubated in an incubator at 37 °C with 5% carbon dioxide for 96 h. Before measurement, the CellTiter-Lumi™ luminescent cell viability assay reagent was equilibrated to room temperature in the dark. Then, 50 µL of the CellTiter-Lumi™ (Cat. No.: C0065XL) cell viability assay reagent was added to each well of the 96-well plate. The plate was shaken in the dark on a shaker at 300 rpm for 10 min to ensure complete cell lysis. After the reaction was completed, the luminescence was measured on a multi-mode microplate reader. The cell inhibition rate was determined according to the luminescence. Then, a cell viability curve was generated by Graphpad Prism 8.0, and the IC50 values were calculated. The compounds of the present disclosure were tested for activity by the method described above. Table 1. Cell inhibitory activity (IC50 values)
# HL-60 = test: as above; type: cell-based; conditions: Homo sapiens; HL-60 cells, 96 h incubation; read-out: Cell inhibitory activity (IC50 values) HL-60
# Description: as §2
# NCI-H82 = test: as above; type: cell-based; conditions: Homo sapiens; NCI-H82 cells, 96 h incubation; read-out: Cell inhibitory activity (IC50 values) NCI-H82
# Description: as §2
# Romas = test: as above; type: cell-based; conditions: Romas cells, 96 h incubation; read-out: Cell inhibitory activity (IC50 values) Romas
# Description: as §2
# SK-BR-3 = test: as above; type: cell-based; conditions: Homo sapiens, SK-BR-3 cells
# Description: as §2
# [6] = Metabolic stability in liver microsomes; conditions: Monkey liver microsomes, after 60 min of incubation
# Description: as §3
# [7] = Metabolic stability in liver microsomes; conditions: Mouse liver microsomes, after 60 min of incubation
# Description: as §3
compound,measurement,setting,value
O=C1CCC(N2Cc3cc(CNC(=O)Nc4ccc(CCCOC5CCCNC5)c(Cl)c4)ccc3C2=O)C(=O)N1 (centres unmarked) [Compound B19],CLint scaled at 1 µM,in vitro [1],17 mL/min/kg
same,half-life at 1 µM,in vitro [1],5.48 h
same,Parent drug remaining %,[2],80.5%
same,pIC50,SNU-5,> 7.30
same,pIC50,AsPc-1,6.70 to 7.30
same,pIC50,HCT-15,6.00 to 6.70
same,CLint scaled at 1 µM,in vitro [3],5.8 mL/min/kg
same,half-life at 1 µM,in vitro [3],5 h
same,CLint scaled at 1 µM,in vitro [4],11.3 mL/min/kg
same,half-life at 1 µM,in vitro [4],3 h
same,CLint scaled at 1 µM,in vitro [5],6.55 mL/min/kg
same,half-life at 1 µM,in vitro [5],6.32 h
same,pIC50,NCI-H929,> 8.00
same,pIC50,HL-60,> 8.00
same,pIC50,NCI-H82,7.30 to 8.00
same,pIC50,Romas,> 8.00
same,pIC50,"SK-BR-3; 96 h incubation, read-out: Cell inhibitory activity (IC50 values) SK-BR-3",> 8.00
same,pIC50,SK-BR-3; read-out: SK-BR-3 IC50,8.44
same,Parent drug remaining %,[6],77.7%
same,Parent drug remaining %,[7],92.8%
